From patent publication US20230219939A1, “N-(1-CYANO-PYRROLIDIN-3-YL)-5-(3-(TRIFLUOROMETHYL)PHENYL)OXAZOLE-2-CARBOXAMIDE DERIVATIVES AND THE CORRESPONDING OXADIAZOLE DERIVATIVES AS USP30 INHIBITORS FOR THE TREATMENT OF MITOCHONDRIAL DYSFUNCTION” (MISSION THERAPEUTICS LIMITED, priority 2020, published 2023)

Tests used:
mouse hepatocytes = assay: Hepatocyte Cl mouse; type: in vitro ADME
Description: Hep Cl mouse: in vitro hepatocyte clearance in mouse cells.
(§1) Clu: in vitro clearance. Clu as defined here is the scaled clearance, in turn calculated from the intrinsic clearance. The intrinsic clearance is the predicted clearance due to hepatic metabolic reactions, determined from incubation of a compound in a hepatocyte preparation.

Cathepsin S = Cathepsin S (Homo sapiens, UniProt P25774); assay: Cathepsin S IC50; type: biochemical
Chain of Cathepsin S (P25774 115-331, species assumed): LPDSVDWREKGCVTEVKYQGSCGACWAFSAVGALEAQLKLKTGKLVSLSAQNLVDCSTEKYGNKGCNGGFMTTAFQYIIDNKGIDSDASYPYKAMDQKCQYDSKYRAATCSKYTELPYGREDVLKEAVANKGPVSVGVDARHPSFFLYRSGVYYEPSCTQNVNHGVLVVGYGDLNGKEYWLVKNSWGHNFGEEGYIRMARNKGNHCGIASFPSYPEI

[1] = Plasma binding, equilibrium dialysis; type: in vitro ADME; conditions: mouse plasma; read-out: Binding Mouse Plasma fu, p
Source text: Plasma fu,p: The free fraction of a compound in plasma preparation determined by in vitro equilibrium dialysis. It is understood that only unbound (free) compound is capable of engaging with the target.

Log D = type: physicochemical; conditions: pH 7.4; read-out: Log D measured at pH 7.4
Source text: log D: distribution co-efficient; lipophilicity measurement.

UUO injured kidneys = assay: Unilateral ureteral obstructive kidney disease model (UUO); type: in vivo, C57BL/6 mice; conditions: 10 days
Source text: UUO causes renal injury characterised by tubular cell injury, interstitial inflammation and fibrosis. It serves as a model of irreversible post-renal acute kidney injury (AKI). Experimental UUO has illustrated the molecular mechanisms of apoptosis, inflammation and fibrosis, all of which are key processes in renal injury, regardless of the primary insult. Consequently, the UUO model provides investigators information beyond obstruction (Chevalier et al, 2009, Kidney Int 75(11): 1145-1152). Example 1 was assessed in the UUO model to determine the ability of the compound to attenuate progressive tubulointerstitial fibrosis and chronic kidney disease (CKD). On day 1 of the study, adult C57BL/6 mice were dosed by oral gavage according to one of the following dosing regimens; Vehicle or 15 mg/kg Example 1 (p.o.) BID. Two hours post dosing on day 1 study mice underwent surgery to ligate the left ureter at two points. Successful UUO surgery was later confirmed by observation of dilation of renal pelvis due to hydronephrosis. The animals were dosed according to their prescribed regimen for 10 days at which point kidneys were harvested, or histopathology assessment and for protein/RNA assessment. Picrosirius Red staining was performed to assess the extent of collagen deposition and IHC was employed to assess relative α-Smooth Muscle Actin (α-SMA) expression.

FaSSIF solubility = type: physicochemical; conditions: pH 6.5, simulated intestinal fluid fasted state
Source text: FaSSIF: simulated intestinal fluid in fasted state measured at pH 6.5.

[2] = Brain homogenate binding, equilibrium dialysis; type: in vitro ADME; conditions: mouse, read-out: Binding Mouse Brain fu, br
Source text: Brain fu,br: The free fraction of a compound in brain homogenate preparation determined by in vitro equilibrium dialysis. It is understood that only unbound (free) compound is capable of engaging with the target.

PK mouse 2 mg/kg iv = type: in vivo; conditions: plasma, read-out: Cl plasma
Source text: Cl in vivo clearance: Pharmacokinetic measurement of the volume of plasma (or any matrix) from which a substance is completely removed per unit time.

Cathepsins B, K, L, S, V = assay: Cathepsin panel IC50 (summary over B, K, L, S, V); type: biochemical
hepatocytes = assay: Hepatocyte Cl human; type: in vitro ADME
Description: Hep Cl human: in vitro hepatocyte clearance in human cells.
as §1

[3] = system: P-glycoprotein (human MDR1); assay: MDR1-MDCK flux assay; type: in vitro ADME, Canine; conditions: dog, read-out: MDR1-MDCK Effective efflux ratio
Source text: The treatment of CNS disorders, including Alzheimer's disease, Parkinson's disease, and other disorders described herein, requires drug molecules to target the brain, which requires adequate penetration of the blood brain barrier. […] The probability that a compound can cross the blood brain barrier may be measured by an in vitro flux assay utilizing a MDR1-MDCK cell monolayer (Madin-Darby Canine Kidney cells transfected with MDR-1 resulting in overexpression of the human efflux transporter P-glycoprotein). Additionally, exposure may also be measured directly in brain and plasma using in vivo animal models.
MDR1-MDCK (Madin-Darby Canine Kidney cell monolayer) (in vitro) flux assay.

[4] = WT-MDCK (wild-type) in vitro flux; type: in vitro ADME; conditions: dog
Source text: WT-MDCK (wild-type) in vitro flux.

[5] = Brain microdialysis PK 30 mg/kg PO mouse; type: in vivo
Source text: Kpuu is the ratio of unbound drug in brain to unbound drug in plasma and may be indicative of potential for treating peripheral and/or CNS indications.

Mouse plasma stability = type: in vitro ADME
[6] = system: USP2, USP6, USP10, USP16, USP21, USP22, USP25, USP28; assay: DUB selectivity panel IC50; type: biochemical
PK mouse 10 mg/kg PO = type: in vivo
Source text: Oral F: Oral bioavailability.

[7] = system: HCT116 human colorectal carcinoma cells; assay: In vitro cytotoxicity (Cell Tox), alamarBlue; type: cell-based; conditions: HCT-116, 96-hour continual compound exposure
Source text: There is also a need for compounds that have a favourable safety profile, which may be measured by a variety of standard in vitro and in vivo methods. A cell toxicity counter-screen may be used to assay the anti-proliferative/cytotoxic effect in a particular cell line (e.g. HCT116) by fluorometric detection of rezasurin (alamarBlue™) to resofurin in response to mitochondrial activity.
Measured in HCT116 human colorectal carcinoma cells using alamarBlue™ as the assay endpoint. Compound cytotoxicity was measured over a period of 96-hour continual compound exposure.

Cathepsin B = Cathepsin B (Homo sapiens, UniProt P07858); assay: Cathepsin B IC50; type: biochemical

With COC[C@@H]1C[C@@H](NC(=O)c2ncc(-c3cccc(C(F)(F)F)c3)o2)CN1C#N [Example 1, N-((3R,5S)-1-Cyano-5-(methoxymethyl)-pyrrolidin-3-yl)-5-(3-(trifluoromethyl)phenyl)oxazole-2-carboxamide] the “Hepatocyte Cl mouse Scaled Clu” value (mouse hepatocytes) was 81 mL/min/kg, the “hepatocyte metabolic stability compared to Reference Examples A and B (in words)” value (mouse hepatocytes) was “significantly improved hepatocyte metabolic stability” and the IC50 (Cathepsin S) was 138 µM. For the same compound, the fraction unbound [1] was 0.12, the logD (Log D) was 2.6 and the “α-SMA levels in UUO injured kidneys (IHC)” value (UUO injured kidneys; 15 mg/kg oral BID, vs vehicle treated controls) was “statistical reduction in α-SMA levels”. The “collagen deposition (picrosirius red staining) in ligated kidneys” value (UUO injured kidneys; 15 mg/kg p.o. BID, vs vehicle) was “statistically reduced collagen deposition”, the “FaSSIF (μM) measured at pH 6.5” value (FaSSIF solubility) was 200 μM and the fraction unbound [2] was 0.05. For the same compound, the clearance (PK mouse 2 mg/kg iv) was 19 mL/min/kg, the “Selectivity preference for USP30 v cathepsins” value (Cathepsins B, K, L, S, V) was greater than 1133 and the IC50 (Cathepsins B, K, L, S, V; range over the five cathepsins, read-out: Cathepsin IC50 (μM) B, K, L, S, V) was 10.2 to 138 µM. The “Hepatocyte Cl human Scaled Clu” value (hepatocytes) was 10.3 mL/min/kg, the efflux ratio [3] was 1.2 and the efflux ratio [4] was 0.8. The Papp A→B ([4]; A-B) was 11.8 ×10⁻⁶ cm/s, the Kp uu ([5]; Brain microdialysis PK 30 mg/kg PO - mouse) was 1.2 and the “pre-frontal cortex Cmax, u/cell TOM20-Ub” value ([5]; Brain microdialysis PK 30 mg/kg PO mouse) was 23-fold. For the same compound, the “plasma stability compared to Reference Example B (in words)” value (Mouse plasma stability) was “significantly improved plasma stability”, the half-life (Mouse plasma stability; mouse plasma, read-out: Stability Mouse plasma t1/2) was 5.98 h and the “DUB selectivity preference for USP30 v 8 DUBs” value [6] was greater than 1777. For the same compound, the IC50 ([6]; range over the eight DUBs, read-out: DUB IC50 (μM) USP2, USP6, USP10, USP16, USP21, USP22, USP25, USP28) was 16 to 97.9 µM, the “Unbound plasma Cmax/TOM20-Ub cell potency” value (PK mouse 10 mg/kg PO; 10 mg/kg PO dose - mouse) was 41-fold and the bioavailability (PK mouse 10 mg/kg PO; plasma, po, mouse 10 mg/kg, read-out: Oral F (%)) was 82%. It also gave an EC50 [7] greater than 30 µM and an IC50 (Cathepsin B) of 122 µM.
